Assay results reported in PMC10885153, “Membrane Permeability in a Large Macrocyclic Peptide Driven by a Saddle-Shaped Conformation” (Journal of the American Chemical Society, 2024).
Where two headings read alike, the source gives them in different places. One block for each molecule: values may come before it. Positions of bridges follow the written chain, without caps; N, C: chain ends. Non-standard residues stand in square brackets, D forms with d. Residues, ends and D or L forms follow the SMILES beside them. Cha = N[C@@H](CC1CCCCC1)C(=O)O; NMeNva = CCC[C@H](NC)C(=O)O; NMeAbu = CC[C@H](NC)C(=O)O; NMeC = CN[C@@H](CS)C(=O)O; NMeA = CN[C@@H](C)C(=O)O; dAbu = CC[C@@H](N)C(=O)O; dNMeA = CN[C@H](C)C(=O)O; Nva = CCC[C@H](N)C(=O)O; Abu = CC[C@H](N)C(=O)O; Nleu = CC(C)CNCC(=O)O; NPrGly = CCCNCC(=O)O; NEtG = CCNCC(=O)O

Key:
[1] = PAMPA, compounds measured in multiplex as mixtures (primary protocol); conditions: for Papp at 10 µM: PAMPA, pH 7.4, PAMPA Papp; for Papp at 10 µM / PAMPA Papp: internal standard, 10 µM; for PAMPA Pe_avg: Stereoscan Library A (Scaffold A), average
Description: (§1) Passive permeabilities of the 36 compounds were measured in multiplex as mixtures of six compounds each using the parallel artificial membrane permeability assay (PAMPA).[44]−[46]
(§2) Protocol is identical for both mixture and pure compound analysis.
(§3) Two of the following: Carbamazepine (CBZ), propranolol (Prop), and 1NMe35 were
(§4) included as internal standards and prepared as DMSO stocks at a concentration of 2 000 µM.
(§5) assay was carried out with a 96-well donor plate with 0.45 μ hydrophobic Immobilon-P membrane supports
(§6) (Millipore MAIPNTR10) and a 96-well Teflon acceptor plate (Millipore MSSACCEPTOR).
protocol then proceeded as follows:
(§7) Donor well solutions were prepared to a volume of 1 000 µL with the analytes as a solution in 1X
(§8) PBS pH 7.4 and 5% DMSO. To a 3 mL Eppendorf tube was added 950 µL of 1X PBS pH 7.4, 40
(§9) The solutions were vortexed and set aside.
Analyte – 10 µM per compound
(§10) A 1% solution of soy lecithin in dodecane was freshly prepared in a 3 mL Eppendorf tube and
(§11) sonicated (5 min) to ensure full dissolution of the lecithin. The donor membrane plate was turned
(§12) upside down and bottom of the membranes exposed. 5 µL of the 1% soy lecithin solution in
(§13) dodecane was then placed on the bottom of the membrane, allowing the drop to spread across the
(§14) full area of the membrane. Any membranes with visible damage were not used in the assay.
(§15) membranes were allowed to equilibrate for 5 min before loading.
(§16) Each well within the Teflon block acceptor plate that was to be used in the assay was then loaded
(§17) with 300 µL of 1X PBS pH 7.4 and 5% DMSO.
(§18) Working without break, 150 µL of each donor well solution was transferred from the to the 96-well
(§19) donor plate. Each mixture of interest was r un in quadruplicate, using a new well for each replicate.
(§20) As soon as the 96-well donor plate was finished being loaded, it was gently placed into the 96-well
(§21) Teflon acceptor plate, taking care not to trap any air bubbles beneath the membrane.
(§22) The donor/acceptor plates were covered gently with the lid to minimize evaporation and transferred
(§23) gently as a system to a sealed chamber and left to sit overnight at room temperature. The chamber
(§24) was kept from drying by placing a wet paper towel within to prevent evaporation.
(§25) After ~19-20 hours the donor plate was removed from the acceptor plate.
(§26) 50 µL of each well (donor and acceptor) were transferred to a 96 -well plate and diluted with 50 µL
(§27) of methanol prior to heat sealing and quantification by UPLC -MS.

[2] = in vitro; conditions: PAMPA
Description: as §1, §2, §3, §4, §5, §6
protocol then proceeded as follows:
as §7, §8, §9
Analyte – 10 µM per compound
as §10, §11, §12, §13, §14, §15, §16, §17, §18, §19, §20, §21, §22, §23, §24, §25, §26, §27

[3] = in vitro; conditions: dog, MDCK, pH 7.4
Description: We also tested the permeabilities of the pure compounds in a cell-based trans-well permeability assay using Mdr1 knockout Madin–Darby canine kidney (MDCK) cells which minimize the endogenous efflux activity of traditional MDCK cells.[54]
The gMDCKI cell line (overexpressed cell line of Madin -Darby Canine Kidney which acquired from the NIH)
maintained in DMEM medium supplemented with 1% pen -strep, 5 µg/mL Plasmocin, and 10% FBS under
standard culture conditions (37 °C, 95% humidity, and 5% CO2), were seeded (0.75 x 10^5 cells) on the HTS
Transwell-96 permeable support (Corning) to form a confluent monolayer for two days.
All experimental steps were fully automated on Hamilton Vantage. Compound stock solution (1 mM in
DMSO) was diluted (10 μM final in HBSS, pH 7.4) with Lucifer Yellow as leakage indicator (20 μM). After
washing with HBSS buffer, the solution of test compounds was added to the apical side of the monolayers.
The plate was incubated for 3 h at 37 °C. T0 samples (10 µL of the 10 µM compounds diluted solution with
LY) were transferred to a 96-well plate, and then 40 µL of HBSS was added. After 3 hours, 50 μL basolateral
samples in the receiving plate were transferred to a fresh 96-well plate and added 100 μL of IS solution
(Propranolol). LY were read by plate reader and the samples were analyzed by LC/MS/MS.
The apparent permeability coefficient (Papp) is calculated from the permeation rate and compound
concentration at t=0h and t=3h. Where:
dQ/dt: amount of product present in the basal (A-B) or apical (B-A) compartment as a function of time
A: area of transwell (cm2).
C0: initial concentration of product applied in the apical (A -B) or basal (B-A) compartment (nmol/ml).

Papp at 10 µM ([1]; Lipo expt. group A1): 9.1 ± 0.4 ×10⁻⁶ cm/s
Papp at 10 µM ([1]; Lipo expt. group A2): 9.2 ± 0.9 ×10⁻⁶ cm/s
Papp at 10 µM ([1]; Lipo expt. group B2): 8.8 ± 0.2 ×10⁻⁶ cm/s
Papp at 10 µM ([1]; Lipo expt. group C1): 9.8 ± 0.2 ×10⁻⁶ cm/s
PAMPA Papp ([1]; Lipo expt. group B1): 7.7 ± 0.8 x10-6 cm/s
PAMPA Papp ([1]; Lipo expt. group C2): 9.4 ± 0.4 x10-6 cm/s
Structure (SMILES): CC(C)NCC(O)COc1cccc2ccccc12 (stereo not shown) [Propranolol]

Papp at 10 µM ([1]; Lipo expt. group A1): 5.9 ± 0.3 ×10⁻⁶ cm/s
Papp at 10 µM ([1]; Lipo expt. group A2): 6 ± 0.4 ×10⁻⁶ cm/s
Papp at 10 µM ([1]; Lipo expt. group B1): 5.8 ± 0.4 ×10⁻⁶ cm/s
Papp at 10 µM ([1]; Lipo expt. group B2): 6.3 ± 0.2 ×10⁻⁶ cm/s
Papp at 10 µM ([1]; Lipo expt. group C1): 6.8 ± 0.1 ×10⁻⁶ cm/s
Papp at 10 µM ([1]; Lipo expt. group C2): 6 ± 0.1 ×10⁻⁶ cm/s
Papp at 10 µM ([1]; StereoA expt. group A2D): 4.4 ± 0.1 ×10⁻⁶ cm/s
Papp at 10 µM ([1]; StereoA expt. group A2L): 4.4 ± 0.1 ×10⁻⁶ cm/s
Papp at 10 µM ([1]; StereoA expt. group ADD): 4.2 ± 0.1 ×10⁻⁶ cm/s
Papp at 10 µM ([1]; StereoA expt. group ADL): 4.3 ± 0.2 ×10⁻⁶ cm/s
Papp at 10 µM ([1]; StereoA expt. group ALD): 4.3 ± 0.1 ×10⁻⁶ cm/s
Papp at 10 µM ([1]; StereoA expt. group ALL): 5.1 ± 0.3 ×10⁻⁶ cm/s
Papp at 10 µM ([1]; StereoB expt. group B2D): 6.3 ± 1.7 ×10⁻⁶ cm/s
Papp at 10 µM ([1]; StereoB expt. group B2L): 5.6 ± 0.2 ×10⁻⁶ cm/s
Papp at 10 µM ([1]; StereoB expt. group BDD): 5.5 ± 0.1 ×10⁻⁶ cm/s
Papp at 10 µM ([1]; StereoB expt. group BDL): 5.8 ± 0.1 ×10⁻⁶ cm/s
Papp at 10 µM ([1]; StereoB expt. group BLD): 5.5 ± 0.1 ×10⁻⁶ cm/s
Papp at 10 µM ([1]; StereoB expt. group BLL): 5.8 ± 0.2 ×10⁻⁶ cm/s
Structure (SMILES): NC(=O)N1c2ccccc2C=Cc2ccccc21 [Carbamazepine]

Papp at 10 µM ([2]; pH 7.4, Pe_avg): 0.072 ×10⁻⁶ cm/s
Papp at 10 µM ([2]; pH 7.4, log(Pe)_avg): 0.0593 ×10⁻⁶ cm/s
%R_avg (PAMPA, 10 µM, pH 7.4): 6.0%
Structure (SMILES): CCCN1CC(=O)N[C@@H](CC(C)C)C(=O)N2CCC[C@@H]2C(=O)N(C)[C@@H](C)C(=O)N[C@@H](CC2CCCCC2)C(=O)N(C)[C@@H](C)C(=O)N[C@@H](CC(C)C)C(=O)N(C)[C@H](C(=O)OCC)CSCC(=O)N[C@@H](CC(C)C)C1=O [LB12, O=C(N(C)[C@H](C(OCC)=O)CSCC(N[C@H](C1=O)CC(C)C)=O)[C@H](CC(C)C)NC([C@H](C)N(C)C([C@H](CC2CCCCC2)NC([C@H](C)N(C)C([C@@H]3N(C([C@H](CC(C)C)NC(CN1CCC)=O)=O)CCC3)=O)=O)=O)=O] ({CH2CO}-L[NPrGly]L[dP][NMeA][Cha][NMeA]L[NMeC]-OEt; thioether N-9)

Papp at 10 µM ([2]; pH 7.4, Permeability (Papp) PAMPA (mixture)): 5 ×10⁻⁶ cm/s
%R_avg (PAMPA, 10 µM, pH 7.4): 19.3%
Papp A→B at 3 h, 10 µM [3]: 7.4 ×10⁻⁶ cm/s
Papp at 3 h, 10 µM [3]: 7.4 ×10⁻⁶ cm/s
Structure (SMILES): CCOC(=O)[C@@H]1CSCC(=O)N[C@@H](CC(C)C)C(=O)N(C)[C@@H](C)C(=O)N[C@@H](CC(C)C)C(=O)N2CCC[C@@H]2C(=O)N(C)[C@@H](CC)C(=O)N[C@@H](CC)C(=O)N(C)[C@@H](C)C(=O)N[C@@H](CC(C)C)C(=O)N1C [LC02, O=C(N(C)[C@H](C(OCC)=O)CSCC(N[C@H](C(N(C)[C@@H](C)C(N[C@@H](CC(C)C)C(N1[C@H](CCC1)C(N(C)[C@@H](CC)C(N[C@H]2CC)=O)=O)=O)=O)=O)CC(C)C)=O)[C@H](CC(C)C)NC([C@H](C)N(C)C2=O)=O] ({CH2CO}-L[NMeA]L[dP][NMeAbu][Abu][NMeA]L[NMeC]-OEt; thioether N-9)

Papp at 10 µM ([2]; pH 7.4, Pe_avg): 2.57 ×10⁻⁶ cm/s
%R_avg (PAMPA, 10 µM, pH 7.4): 50.3%
Structure (SMILES): CCC[C@@H]1NC(=O)CN(CC)C(=O)[C@H](CC(C)C)NC(=O)CSC[C@@H](C(=O)OCC)N(C)C(=O)[C@H](CC(C)C)NC(=O)[C@H](C)N(C)C(=O)[C@H](CC(C)C)NC(=O)[C@H](C)N(C)C(=O)[C@H]2CCCN2C1=O [LB05, O=C(N(C)[C@H](C(OCC)=O)CSCC(N[C@H](C1=O)CC(C)C)=O)[C@H](CC(C)C)NC([C@H](C)N(C)C([C@H](CC(C)C)NC([C@H](C)N(C)C([C@@H]2N(C([C@H](CCC)NC(CN1CC)=O)=O)CCC2)=O)=O)=O)=O] ({CH2CO}-L[NEtG][Nva][dP][NMeA]L[NMeA]L[NMeC]-OEt; thioether N-9)

Structure (SMILES): CCOC(=O)[C@@H]1CSCC(=O)N[C@H](CC)C(=O)N(C)[C@@H](C)C(=O)N[C@H](CC(C)C)C(=O)N(C)[C@H](C)C(=O)N(CC)CC(=O)N[C@@H](CC(C)C)C(=O)N(C)[C@@H](C)C(=O)N[C@@H](CC(C)C)C(=O)N1C [JF206_A2D_DDLL_Ethyl] ({CH2CO}-[dAbu][NMeA][dL][dNMeA][NEtG]L[NMeA]L[NMeC]-OEt; thioether N-9)
PAMPA Pe_avg [1]: 0 ×10⁻⁶ cm/s

Papp at 10 µM ([2]; pH 7.4, Pe_avg): 0.794 ×10⁻⁶ cm/s
%R_avg (PAMPA, 10 µM, pH 7.4): 4.8%
log(Pe)_avg (PAMPA, 10 µM, pH 7.4): -6.100
Structure (SMILES): CCCN1CC(=O)N[C@@H](CC(C)C)C(=O)N(C)[C@@H](C)C(=O)N[C@@H](CC(C)C)C(=O)N(C)[C@H](C(=O)OCC)CSCC(=O)N[C@@H](CC(C)C)C(=O)N(C)[C@@H](C)C(=O)N[C@@H](CC(C)C)C(=O)N2CCC[C@@H]2C1=O [LA08, O=C(N(C)[C@H](C(OCC)=O)CSCC(N[C@H](C(N(C)[C@@H](C)C(N[C@@H](CC(C)C)C(N1[C@H](CCC1)C(N(CCC)CC(N[C@H]2CC(C)C)=O)=O)=O)=O)=O)CC(C)C)=O)[C@H](CC(C)C)NC([C@H](C)N(C)C2=O)=O] ({CH2CO}-L[NMeA]L[dP][NPrGly]L[NMeA]L[NMeC]-OEt; thioether N-9)

Structure (SMILES): CCOC(=O)[C@@H]1CSCC(=O)N[C@H](CC)C(=O)N(C)[C@@H](C)C(=O)N[C@H](CC(C)C)C(=O)N(C)[C@H](C)C(=O)N(CC(C)C)CC(=O)N[C@@H](CC(C)C)C(=O)N(C)[C@@H](C)C(=O)N[C@@H](CC(C)C)C(=O)N1C [JF206_A2D_DDLL_Isobutyl] ({CH2CO}-[dAbu][NMeA][dL][dNMeA][Nleu]L[NMeA]L[NMeC]-OEt; thioether N-9)
PAMPA Pe_avg [1]: 0 ×10⁻⁶ cm/s

Papp at 10 µM ([2]; pH 7.4, Pe_avg): 0.619 ×10⁻⁶ cm/s
Papp at 10 µM ([2]; pH 7.4, log(Pe)_avg): 0.551 ×10⁻⁶ cm/s
%R_avg (PAMPA, 10 µM, pH 7.4): 6.2%
Structure (SMILES): CCC[C@@H]1NC(=O)CN(CCC)C(=O)[C@H](CC(C)C)NC(=O)CSC[C@@H](C(=O)OCC)N(C)C(=O)[C@H](CC(C)C)NC(=O)[C@H](C)N(C)C(=O)[C@H](CC2CCCCC2)NC(=O)[C@H](C)N(C)C(=O)[C@H]2CCCN2C1=O [LB11, O=C(N(C)[C@H](C(OCC)=O)CSCC(N[C@H](C1=O)CC(C)C)=O)[C@H](CC(C)C)NC([C@H](C)N(C)C([C@H](CC2CCCCC2)NC([C@H](C)N(C)C([C@@H]3N(C([C@H](CCC)NC(CN1CCC)=O)=O)CCC3)=O)=O)=O)=O] ({CH2CO}-L[NPrGly][Nva][dP][NMeA][Cha][NMeA]L[NMeC]-OEt; thioether N-9)

%R_avg (PAMPA, 10 µM, pH 7.4): 12.7%
Pe_avg (PAMPA, 10 µM, pH 7.4): 0 ×10⁻⁶ cm/s
Structure (SMILES): CCC[C@H]1C(=O)N[C@@H](CC2CCCCC2)C(=O)N(C)[C@@H](C)C(=O)N[C@@H](CC(C)C)C(=O)N(C)[C@H](C(=O)OCC)CSCC(=O)N[C@@H](CC(C)C)C(=O)N(C)[C@@H](C)C(=O)N[C@@H](CC(C)C)C(=O)N2CCC[C@@H]2C(=O)N1C [LC12, O=C(N(C)[C@H](C(OCC)=O)CSCC(N[C@H](C(N(C)[C@@H](C)C(N[C@@H](CC(C)C)C(N1[C@H](CCC1)C(N(C)[C@@H](CCC)C(N[C@H]2CC3CCCCC3)=O)=O)=O)=O)=O)CC(C)C)=O)[C@H](CC(C)C)NC([C@H](C)N(C)C2=O)=O] ({CH2CO}-L[NMeA]L[dP][NMeNva][Cha][NMeA]L[NMeC]-OEt; thioether N-9)

PAMPA Pe_avg: 0 ×10⁻⁶ cm/s
Structure (SMILES): CCOC(=O)[C@@H]1CSCC(=O)N[C@H](CC)C(=O)N(C)[C@@H](C)C(=O)N[C@@H](CC(C)C)C(=O)N2CCC[C@@H]2C(=O)N(CC)CC(=O)N[C@H](CC(C)C)C(=O)N(C)[C@H](C)C(=O)N[C@@H](CC(C)C)C(=O)N1C [JF206_ADD_DLDD_Ethyl] ({CH2CO}-[dAbu][NMeA]L[dP][NEtG][dL][dNMeA]L[NMeC]-OEt; thioether N-9)

Papp at 10 µM ([2]; pH 7.4, Pe_avg): 2.29 ×10⁻⁶ cm/s
%R_avg (PAMPA, 10 µM, pH 7.4): 13.3%
Structure (SMILES): CCCN1CC(=O)N[C@@H](CC(C)C)C(=O)N2CCC[C@@H]2C(=O)N(C)[C@@H](C)C(=O)N[C@@H](CC(C)C)C(=O)N(C)[C@@H](C)C(=O)N[C@@H](CC(C)C)C(=O)N(C)[C@H](C(=O)OCC)CSCC(=O)N[C@@H](CC(C)C)C1=O [LB08, O=C(N(C)[C@H](C(OCC)=O)CSCC(N[C@H](C1=O)CC(C)C)=O)[C@H](CC(C)C)NC([C@H](C)N(C)C([C@H](CC(C)C)NC([C@H](C)N(C)C([C@@H]2N(C([C@H](CC(C)C)NC(CN1CCC)=O)=O)CCC2)=O)=O)=O)=O] ({CH2CO}-L[NPrGly]L[dP][NMeA]L[NMeA]L[NMeC]-OEt; thioether N-9)
